Laboratory results: patent publication US20090023810A1, “METHODS OF TRANSLATION AND/OR INFLAMMATION BLOCKADE” (priority 2007, published 2009)

Tests used:
HeLa cells = assay: In vivo [35S]-methionine labeling of newly synthesized proteins in HeLa cells; type: cell-based; conditions: FIG. 4A (30 minutes, concentrations) and FIG. 4B (90 μM, times)
Description: HeLa cells were treated with various agents and for various times, as indicated in […] and the brief description thereof. HeLa Cells on 60-mm culture dishes were then washed twice with phosphate-buffered saline (PBS) and incubated in methionine-free Dulbecco's Modified eagle's medium (DMEM) (BMS) medium for 1 hour. Cells were incubated for 30 minutes after supplementation with [^35S]-methionine ([^35S]-Met) ([…]; NEN Life Science Products), washed twice with ice-cold PBS, harvested, and then lysed with the NP-40 lysis buffer. The cell lysates were centrifuged and the protein concentrations in the cell lysates were measured using the Bradford assay method. To quantify newly synthesized proteins, cell lysates labeled with [^35S]-Met were precipitated with 10% trichloroacetic acid (TCA) (w/v), and the precipitated proteins were then dissolved in water and analyzed by a liquid scintillation assay (Packard).
As SG formation is accompanied by translational blockade, the effects of 15d-PGJ2 on protein synthesis were investigated. In FIG. 4A, HeLa cells grown on 60-mm dishes up to about 70-80% confluence were mock-treated (1) or treated with PGA1 (2, 3, and 4), 15d-PGJ2 (5 and 6 and 7), or PGE2 (8, 9, and 10) at the indicated concentrations in FIG. 4A for 30 minutes. Then in vivo labeling of newly synthesized proteins was performed as described above. 4200 CPM was obtained from the TCA-precipitated control sample (lane 1), and phosphorylated eIF2α levels were monitored by Western-blot analyses (bottom panel). In FIG. 4B, cells were mock-treated (1), treated with SA (400 μM) (2 and 3), with PGA1 (90 μM) (4-6), with 15d-PGJ2 (90 μM) (7-9), and with PGE2 (90 μM) (10-12) as indicated times. Newly synthesized proteins were measured as panel (A). 4500 CPM was obtained from the TCA-precipitated control sample (lane 1). Phosphorylated eIF2α levels were monitored by Western-blot analyses (bottom panel) and the obtained results are shown in FIG. 4B.

eIF4GI-eIF4A interaction = target: T1, eIF4GI-eIF4A interaction (Homo sapiens, UniProt P60842); assay: eIF4GI-eIF4A co-immunoprecipitation from 293T cell lysates; type: biochemical; conditions: 293T cell extract, 50 μM, 30° C., 1 hour, FIG. 7A
T1 construct: expressed in transfected cells; host or cells: 293T
Description: 293T cells transfected with DNAs were lysed using the NP-40 lysis buffer. The lysates were clarified by centrifugation at 14,000 g for 15 minutes. Anti-FLAG monoclonal antibody (4 μg) was incubated with 20 μl of Protein G-agarose (GE Healthcare) for 1 hour in 1 ml NP-40 lysis buffer at 4° C. Lysates were pre-cleared with 10 μl of protein G-agarose at 4° C. for 30 minutes. After pre-clearing, cell lysates were treated with 50 μM of EtOH, PGE2, or 15d-PGJ2 at 30° C. for 1 hour, followed by centrifugation. Then protein G agarose-conjugated antibodies were incubated with the pre-cleared lysates at 4° C. for 1 hour. Precipitates were washed three times with lysis buffer and analyzed by SDS-PAGE.
The mechanism by which 15d-PGJ2 inhibits translation was investigated by monitoring the effects of 15d-PGJ2 on translational initiation complex formation as shown FIG. 7A. eIF4G is a scaffold protein that recruits eIF4E, eIF4A, eIF3, and PABP into the translational initiation complex. The effect of 15d-PGJ2 on the eIF4GI-eIF4A interaction was monitored by a co-immunoprecipitation assay. 293T cells were co-transfected with HA-eIF4B and FLAG-eIF4A1 (provided by Dr. Yongjun Dang and Dr. Jian Liu, Johns Hopkins). Cells were lysed then treated with 50 μM of PGE2 or 15d-PGJ2 at 30° C. for 1 hour. Immunoprecipitation was performed with an anti-FLAG antibody.

T1 sequence (P60842 whole entry): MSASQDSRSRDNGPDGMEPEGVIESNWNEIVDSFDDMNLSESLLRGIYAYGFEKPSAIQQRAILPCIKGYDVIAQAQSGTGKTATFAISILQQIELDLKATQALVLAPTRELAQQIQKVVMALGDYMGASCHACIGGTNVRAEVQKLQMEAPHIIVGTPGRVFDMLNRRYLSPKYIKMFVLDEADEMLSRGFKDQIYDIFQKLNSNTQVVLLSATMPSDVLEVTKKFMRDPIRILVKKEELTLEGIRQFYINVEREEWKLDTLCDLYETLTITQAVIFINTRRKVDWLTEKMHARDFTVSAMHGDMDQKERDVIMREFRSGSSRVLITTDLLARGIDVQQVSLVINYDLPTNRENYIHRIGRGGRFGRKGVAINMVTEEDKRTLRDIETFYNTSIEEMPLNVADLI
T1 sequence (P23588 whole entry partner): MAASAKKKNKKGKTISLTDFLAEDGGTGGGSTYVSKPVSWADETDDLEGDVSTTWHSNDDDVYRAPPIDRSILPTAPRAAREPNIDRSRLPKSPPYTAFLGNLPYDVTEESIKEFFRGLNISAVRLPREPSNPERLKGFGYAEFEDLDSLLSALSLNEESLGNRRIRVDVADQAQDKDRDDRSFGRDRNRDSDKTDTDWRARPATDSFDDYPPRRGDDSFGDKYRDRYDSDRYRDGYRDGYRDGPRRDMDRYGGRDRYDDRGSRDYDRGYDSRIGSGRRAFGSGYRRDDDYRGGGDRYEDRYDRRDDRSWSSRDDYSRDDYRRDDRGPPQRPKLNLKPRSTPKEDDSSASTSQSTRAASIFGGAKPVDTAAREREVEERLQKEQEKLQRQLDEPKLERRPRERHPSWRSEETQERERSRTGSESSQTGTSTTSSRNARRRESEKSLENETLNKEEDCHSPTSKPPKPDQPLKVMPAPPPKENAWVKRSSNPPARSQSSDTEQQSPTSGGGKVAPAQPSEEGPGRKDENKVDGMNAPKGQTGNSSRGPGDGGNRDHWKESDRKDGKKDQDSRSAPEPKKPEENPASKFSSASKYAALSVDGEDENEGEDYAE

Row | Compound | Total protein synthesis (35S-methionine labeling) (HeLa cells) | Co-precipitation of eIF4GI with eIF4A1 (eIF4GI-eIF4A interaction)
1 | CCCCC/C=C/C=C1/C(=O)C=C[C@@H]1C/C=C\CCCC(=O)O [15d-PGJ2, 15-deoxy-delta 12,14-prostaglandin J2] | inhibited by 15d-PGJ2 in a concentration-dependent manner | eIF4GI was not co-precipitated with eIF4A1
2 | CCCCC[C@H](O)/C=C/[C@H]1[C@H](O)CC(=O)[C@@H]1C/C=C\CCCC(=O)O [PGE2, prostaglandin E2] | did not block translation | eIF4GI was co-precipitated with eIF4A1
